Measured values taken from patent US11773078B2, “Furin inhibitors” (Glaxosmithkline Intellectual Property Development Limited, priority 2018, dated 2023).
Counter-ions that a name gives are not always drawn.

How the values were obtained:
[1] = molecular target: T1, furin (endogenous protease) in U20S cells (Homo sapiens, UniProt P09958); experiment: Furin cell-based assay (image-based, Golgi-targeted GFP with BMP10 furin/PCSK cleavage site); conditions: 24-hour incubation, read-out: furin golgi cell pXC50 (converted);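 also: Read-out is mean GFP fluorescence of Golgi puncta per cell by high-content imaging, retained when furin inhibited, over an eleven-point 0.00017–10 µM series, four-parameter fit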
T1 construct: the endogenous protease cleaves GFP; endogenous in cells; host or cells: U2OS cells transduced with a BacMam reporter
T1 sequence (P09958 108-794): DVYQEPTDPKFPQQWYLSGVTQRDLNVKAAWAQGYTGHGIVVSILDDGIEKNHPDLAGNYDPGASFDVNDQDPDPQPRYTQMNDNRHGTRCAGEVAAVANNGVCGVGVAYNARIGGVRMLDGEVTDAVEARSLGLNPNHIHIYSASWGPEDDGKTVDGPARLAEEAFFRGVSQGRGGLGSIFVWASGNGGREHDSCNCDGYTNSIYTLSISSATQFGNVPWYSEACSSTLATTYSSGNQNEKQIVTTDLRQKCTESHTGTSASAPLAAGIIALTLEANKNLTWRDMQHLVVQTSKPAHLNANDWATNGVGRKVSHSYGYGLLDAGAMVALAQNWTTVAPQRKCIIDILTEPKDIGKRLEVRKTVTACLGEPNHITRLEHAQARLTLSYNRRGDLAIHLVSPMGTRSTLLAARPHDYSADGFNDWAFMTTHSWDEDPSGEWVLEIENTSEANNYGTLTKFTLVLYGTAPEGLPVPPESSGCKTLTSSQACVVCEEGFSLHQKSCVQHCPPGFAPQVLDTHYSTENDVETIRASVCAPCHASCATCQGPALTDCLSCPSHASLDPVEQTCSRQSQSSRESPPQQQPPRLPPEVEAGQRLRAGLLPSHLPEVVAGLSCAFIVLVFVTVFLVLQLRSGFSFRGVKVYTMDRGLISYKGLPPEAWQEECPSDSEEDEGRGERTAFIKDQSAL

[2] = molecular target: T2, Furin (108-574-Tev-Flag-His) enzyme (Homo sapiens, UniProt P09958); experiment: Furin enzyme assay; assay type: biochemical
T2 construct: Furin (108-574-Tev-Flag-His) enzyme was expressed and purified from CHO cells; TEV cleavage site (C); FLAG (C); His (C); made in house; host or cells: CHO cells
T2 sequence (P09958 108-574): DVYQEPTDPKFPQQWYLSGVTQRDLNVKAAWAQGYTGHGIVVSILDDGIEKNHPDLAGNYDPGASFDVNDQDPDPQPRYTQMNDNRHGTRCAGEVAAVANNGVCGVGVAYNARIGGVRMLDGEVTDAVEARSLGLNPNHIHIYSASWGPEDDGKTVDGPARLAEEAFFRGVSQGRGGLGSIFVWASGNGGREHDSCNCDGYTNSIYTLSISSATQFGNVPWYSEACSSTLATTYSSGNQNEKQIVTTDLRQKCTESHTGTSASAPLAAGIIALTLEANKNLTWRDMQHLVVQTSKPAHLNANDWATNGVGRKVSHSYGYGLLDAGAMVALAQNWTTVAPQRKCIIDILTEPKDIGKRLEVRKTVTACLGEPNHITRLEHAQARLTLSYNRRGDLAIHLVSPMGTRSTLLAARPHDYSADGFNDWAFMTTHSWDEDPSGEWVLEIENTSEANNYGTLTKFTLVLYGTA
Procedure, shortened: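 Compounds ran as 11-point threefold dilutions (0.00017–10 μM final) against 40 pM furin, purified from CHO cells, for 2 h at room temperature. Buffer: 100 mM HEPES pH7.5 with 1 mM CaCl2 and 0.005% Triton X-100. Envision readout. Four-parameter curve gives pXC50.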

Row | SMILES | EC50 [1] | furin enzyme pIC50 [2] | IC50 ([2]; read-out: furin enzyme pIC50 (converted))
1 | CC(=O)NCC1CCN(Cc2cc(Oc3cnc(N4CCN(CCC(=O)O)CC4)nc3)nc(-c3cc(Cl)cc(C(F)F)c3)c2)CC1 [Example 61, 3-(4-(5-((4-((4-(acetamidomethyl)piperidin-1-yl)methyl)-6-(3-chloro-5-(difluoromethyl)phenyl)pyridin-2-yl)oxy)pyrimidin-2-yl)piperazin-1-yl)propanoic acid] | 0.158 µM | 9.2 | –
2 | CC(=O)NCC1CCN(Cc2cc(Oc3ccc(N4CCN(C(C)CC(=O)O)CC4)nc3)nc(-c3cc(Cl)cc(Cl)c3)c2)CC1 (stereo not shown) [Example 281, 3-(4-(5-((4-((4-(Acetamidomethyl)piperidin-1-yl)methyl)-6-(3,5-dichlorophenyl)pyridin-2-yl)oxy)pyridin-2-yl)piperazin-1-yl)butanoic acid] | 0.0398 µM | 9.5 | –
3 | CN1CCN(c2ncc(Oc3cc(CN4CCC5(CC4)CN(C(=O)CO)C5)cc(-c4cc(Cl)cc(Cl)c4)n3)cn2)CC1 [Example 135, 1-(7-((2-(3,5-dichlorophenyl)-6-((2-(4-methylpiperazin-1-yl)pyrimidin-5-yl)oxy)pyridin-4-yl)methyl)-2,7-diazaspiro[3.5]nonan-2-yl)-2-hydroxyethanone] | 0.01 µM | 9.2 | –
4 | CC(O)CCN1CCN(c2ncc(Oc3cc(CN4CCC(F)CC4)cc(-c4cc(Cl)cc(Cl)c4)n3)cn2)CC1 (stereo not shown) [Example 60, 4-(4-(5-((6-(3,5-dichlorophenyl)-4-((4-fluoropiperidin-1-yl)methyl)pyridin-2-yl)oxy)pyrimidin-2-yl)piperazin-1-yl)butan-2-ol] | 0.0158 µM | 7.6 | –
5 | COC(=O)NCC1(F)CCN(Cc2cc(Oc3cnc(N4CCN(CCC(=O)O)CC4)nc3)nc(-c3cc(Cl)cc(Cl)c3)c2)CC1 [Example 51, 3-((4-(5-((6-(3,5-Dichlorophenyl)-4-((4-fluoro-4-(((methoxycarbonyl)amino)methyl)piperidin-1-yl)methyl)pyridin-2-yl)oxy)pyrimidin-2-yl)piperazin-1-yl)propanoic acid, 4 hydrochloride] | 0.158 µM | 8.2 | –
6 | CNCc1cc(Oc2ccc(N3CCN(C)CC3)nc2)cc(-c2cc(Cl)cc(Cl)c2)c1 [Example 104, 1-(3′,5′-dichloro-5-((6-(4-methylpiperazin-1-yl)pyridin-3-yl)oxy)-[1,1′-biphenyl]-3-yl)-N-methylmethanamine] | 0.0251 µM | 8.5 | –
7 | CN1CCCN(c2ncc(Oc3cc(CN4CC[C@@H]5[C@H](CC4)[C@H]5C(=O)O)cc(-c4cc(Cl)cc(Cl)c4)n3)cn2)CC1 [Example 397, (1R,7S,8r)-4-((2-(3,5-Dichlorophenyl)-6-((2-(4-methyl-1,4-diazepan-1-yl)pyrimidin-5-yl)oxy)pyridin-4-yl)methyl)-4-azabicyclo[5.1.0]octane-8-carboxylic acid, 4 hydrochloride] | 0.0251 µM | 9 | –
8 | O=C(O)CC1CCN(Cc2cc(Oc3ccc(N4CCNCC4)nc3)nc(-c3cc(Cl)cc(Cl)c3)c2)CC1 [Example 4, 2-(1-((2-(3,5-Dichlorophenyl)-6-((6-(piperazin-1-yl)pyridin-3-yl)oxy)pyridin-4-yl)methyl)piperidin-4-yl)acetic acid, 4 hydrochloride] | 0.0316 µM | 8.7 | –
9 | CC(=O)NCC1CCN(Cc2cc(Oc3ccc(N4CCNC(CO)C4)nc3)nc(-c3cc(Cl)cc(Cl)c3)c2)CC1 (stereo not shown) [Example 195, N-((1-((2-(3,5-dichlorophenyl)-6-((6-(3-(hydroxymethyl)piperazin-1-yl)pyridin-3-yl)oxy)pyridin-4-yl)methyl)piperidin-4-yl)methyl)acetamide] | 0.001 µM | 9.2 | –
10 | CN1CCN(c2ncc(Oc3cc(CN4CCC(P(C)(C)=O)CC4)cc(-c4cc(Cl)cc(Cl)c4)n3)cn2)CC1 [Example 331, (1-((2-(3,5-Dichlorophenyl)-6-((2-(4-methylpiperazin-1-yl)pyrimidin-5-yl)oxy)pyridin-4-yl)methyl)piperidin-4-yl)dimethylphosphine oxide, 4 hydrochloride] | 0.02 µM | 7.8 | –
11 | CC(=O)NCC1CCN(Cc2cc(Oc3cnc(N4CCN(CCCO)CC4)nc3)cc(-c3cc(Cl)cc(Cl)c3)c2)CC1 [Example 113, N-((1-((3′,5′-Dichloro-5-((2-(4-(3-hydroxypropyl)piperazin-1-yl)pyrimidin-5-yl)oxy)-[1,1′-biphenyl]-3-yl)methyl)piperidin-4-yl)methyl)acetamide] | 0.0126 µM | – | < 0.000158 µM
12 | Cc1c(CN2CCC(CC(=O)O)CC2)cc(-c2cc(Cl)cc(Cl)c2)nc1Oc1cnc(N2CCN(C)CC2)cn1 [Example 333, 2-(1-((6-(3,5-Dichlorophenyl)-3-methyl-2-((5-(4-methylpiperazin-1-yl)pyrazin-2-yl)oxy)pyridin-4-yl)methyl)piperidin-4-yl)acetic acid] | 0.0126 µM | 8.7 | –
13 | O=C(O)CC1CCN(Cc2cc(Oc3cnc(N4CCNCC(O)C4)nc3)nc(-c3cc(Cl)cc(Cl)c3)c2)CC1 (stereo not shown) [Example 123, 2-(1-((2-(3,5-dichlorophenyl)-6-((2-(6-hydroxy-1,4-diazepan-1-yl)pyrimidin-5-yl)oxy)pyridin-4-yl)methyl)piperidin-4-yl)acetic acid] | 0.1 µM | 8.7 | –
14 | COC(=O)NCC1CCN(Cc2cc(Oc3cnc(N4CCNCC4)nc3)nc(-c3cc(F)cc(Cl)c3)c2)CC1 [Example 275, methyl ((1-((2-(3-chloro-5-fluorophenyl)-6-((2-(piperazin-1-yl)pyrimidin-5-yl)oxy)pyridin-4-yl)methyl)piperidin-4-yl)methyl)carbamate] | 0.1 µM | 8.3 | –
15 | CS(=O)(=O)CCCN1CCN(c2ccc(Oc3cc(CN4CCC(CCC(=O)O)CC4)cc(-c4cc(Cl)cc(Cl)c4)n3)cn2)CC1 [Example 271, 3-(1-((2-(3,5-dichlorophenyl)-6-((6-(4-(3-(methylsulfonyl)propyl)piperazin-1-yl)pyridin-3-yl)oxy)pyridin-4-yl)methyl)piperidin-4-yl)propanoic acid] | 0.0251 µM | 8.9 | –
16 | CC(CC1CCN(Cc2cc(Oc3cnc(N4CCN(C)CC4)nc3)nc(-c3cc(Cl)cc(Cl)c3)c2)CC1)C(=O)O (stereo not shown) [Example 131, 3-(1-((2-(3,5-dichlorophenyl)-6-((2-(4-methylpiperazin-1-yl)pyrimidin-5-yl)oxy)pyridin-4-yl)methyl)piperidin-4-yl)-2-methylpropanoic acid] | 0.0316 µM | 8.7 | –
17 | Cc1nc(N2CCN(C)CC2)ccc1Oc1nc(-c2cc(Cl)cc(Cl)c2)cc(CN2CCC(CC(=O)O)CC2)c1F [Example 383, 2-(1-((6-(3,5-dichlorophenyl)-3-fluoro-2-((2-methyl-6-(4-methylpiperazin-1-yl)pyridin-3-yl)oxy)pyridin-4-yl)methyl)piperidin-4-yl)acetic acid] | 0.0631 µM | 8.4 | –
18 | CNC(=O)OCCN1CCN(c2ncc(Oc3cc(CN4CCC(CC(=O)O)CC4)cc(-c4cc(Cl)cc(Cl)c4)n3)cn2)CC1 [Example 241, 2-(1-((2-(3,5-Dichlorophenyl)-6-((2-(4-(2-((methylcarbamoyl)oxy)ethyl)piperazin-1-yl)pyrimidin-5-yl)oxy)pyridin-4-yl)methyl)piperidin-4-yl)acetic acid] | 0.0631 µM | 8.6 | –
19 | CC(=O)NCC1CCN(Cc2cc(Oc3cnc(N4CCN(CCC(C)(C)C(=O)O)CC4)nc3)nc(-c3cc(Cl)cc(Cl)c3)c2)CC1 [Example 370, 4-(4-(5-((4-((4-(Acetamidomethyl)piperidin-1-yl)methyl)-6-(3,5-dichlorophenyl)pyridin-2-yl)oxy)pyrimidin-2-yl)piperazin-1-yl)-2,2-dimethylbutanoic acid, 4 hydrochloride] | 0.00631 µM | 9.2 | –
20 | CCN(c1cnc(N2CCN(C)CC2)nc1)c1cc(CN2CCC(CC(=O)O)CC2)cc(-c2cc(Cl)cc(Cl)c2)n1 [Example 389, 2-(1-((2-(3,5-Dichlorophenyl)-6-(ethyl(2-(4-methylpiperazin-1-yl)pyrimidin-5-yl)amino)pyridin-4-yl)methyl)piperidin-4-yl)acetic acid] | 0.0631 µM | 8.2 | –
21 | CC(=O)NCC1CCN(Cc2cc(Oc3ccc(N4CCNC(C)(C)C4)nc3)nc(-c3cc(Cl)cc(Cl)c3)c2)CC1 [Example 197, N-((1-((2-(3,5-dichlorophenyl)-6-((6-(3,3-dimethylpiperazin-1-yl)pyridin-3-yl)oxy)pyridin-4-yl)methyl)piperidin-4-yl)methyl)acetamide] | 0.002 µM | 9.2 | –
22 | CC(=O)NCC1CCN(Cc2cc(Oc3ccc(N4CCC(N)C(C)(C)C4)nc3)nc(-c3cc(Cl)cc(Cl)c3)c2)CC1 (stereo not shown) [Example 198, N-((1-((2-((6-(4-amino-3,3-dimethylpiperidin-1-yl)pyridin-3-yl)oxy)-6-(3,5-dichlorophenyl)pyridin-4-yl)methyl)piperidin-4-yl)methyl)acetamide] | 0.002 µM | 9.3 | –
23 | CC(CCN1CCN(c2ncc(Oc3cc(CN4CC[C@@H]5[C@H](CC4)[C@H]5NS(C)(=O)=O)cc(-c4cc(Cl)cc(Cl)c4)n3)cn2)CC1)C(=O)O (stereo partly drawn) [Example 81, 4-(4-(5-((6-(3,5-dichlorophenyl)-4-(((1R,7S,8r)-8-(methylsulfonamido)-4-azabicyclo[5.1.0]octan-4-yl)methyl)pyridin-2-yl)oxy)pyrimidin-2-yl)piperazin-1-yl)-2-methylbutanoic acid] | 0.00631 µM | 9.4 | –
